# Reference: patent publication US20240226158A9, “ADMINISTRATION OF TUMOR INFILTRATING LYMPHOCYTES WITH MEMBRANE BOUND INTERLEUKIN 15 TO TREAT CANCER” (OBSIDIAN THERAPEUTICS, INC., priority 2021, published 2024)
# Test system: IL15 signaling pathway (pSTAT5, pS6)
# Test: phospho-flow cytometry assay of IL15 expression and signaling
# Assay type: cell-based, human
# Conditions: regulated mbIL15 TILs, 18 hours, 4 donors
# Method: Pre-REP TILs were prepared similarly to the methods of Example 1-3 and 9, and unengineered and mbIL15 TIL generated accordingly as described in Examples 1-3 and 9. Engagement of the IL15 signaling pathway results in phosphorylation of signal transducers downstream, including the transcription factor protein STATS and ribosomal protein S6. […] Next, the regulated mbIL15 TILs were regulated for 18 hours in the presence of a range of concentrations of ACZ including 0.1, 1, 2.5, 5, 10, 25, 100 μM, as well as vehicle control. The regulated mbIL15 TILs were then collected for staining and FACS analysis.
# Briefly, cells were stained using antibodies for CD3, CD4, CD8, IL15 and a Live/Dead marker. Then cells were fixed in 2% formaldehyde (BD Cytofix) and permeabilized using a methanol-based buffer (BD Phospho Perm III Buffer) before staining with antibodies specific for phosphorylated STATS (Biolegend) and S6 (Cell Signaling Technology). Cells were acquired on the BD Symphony and analyzed using FlowJo software.
# In order to compare different strategies for IL15 expression, TILs were utilized that constitutively express mbIL15 and regulated mbIL15 TILs. Cryopreserved unengineered TILs, constitutive mbIL15 TILs, and regulated mbIL15 TILs, from three human donors were thawed and then rested in ACZ-free media for 24 hours. […] Cells were acquired on the BD Fortessa and analyzed using FlowJo software.
structure (smiles),measurement,value
"CC(=O)Nc1nnc(S(N)(=O)=O)s1 [ACZ, acetazolamide]","relationship between ACZ and IL15 expression and signaling (pSTAT5, pS6)",dose-dependent relationship
